Measured values reported in patent US11111251B2, “Positive allosteric modulators of the muscarinic acetylcholine receptor M1” (Vanderbilt University, priority 2016, dated 2021).
Where two headings read alike, the source gives them in different places.

Target: T1, human mAChR M1 (Homo sapiens, UniProt P11229)
T1 sequence (P11229 1-460): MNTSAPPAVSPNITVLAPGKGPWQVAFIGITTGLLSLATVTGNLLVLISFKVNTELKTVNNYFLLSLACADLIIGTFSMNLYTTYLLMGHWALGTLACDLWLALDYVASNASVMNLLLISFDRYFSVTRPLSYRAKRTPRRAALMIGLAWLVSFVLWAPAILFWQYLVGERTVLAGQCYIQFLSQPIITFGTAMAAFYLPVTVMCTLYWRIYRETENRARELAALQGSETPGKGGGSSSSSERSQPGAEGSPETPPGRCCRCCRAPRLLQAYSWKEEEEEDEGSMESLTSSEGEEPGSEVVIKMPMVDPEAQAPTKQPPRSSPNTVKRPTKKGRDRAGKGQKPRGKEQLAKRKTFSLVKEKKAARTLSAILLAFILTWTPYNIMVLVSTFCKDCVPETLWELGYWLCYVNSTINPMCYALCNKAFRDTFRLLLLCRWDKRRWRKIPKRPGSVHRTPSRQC
Assay: mAChR M1 cell-based functional assay: calcium mobilization, positive allosteric modulator mode (increase in EC20 acetylcholine response)
Settings: for Emax: read-out: Human M1 Emax (%)
How it was run: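 Calcium-flux assay in CHO-K1 cells stably expressing human M1, loaded with Fluo-4 AM (50 min, 37 °C) and read at 1 Hz. Compound (11-point, 1:3 series) was added at 4 s, EC20 acetylcholine at 144 s and EC80 at 230 s. PAM activity is the concentration-dependent rise in the EC20 response, fitted with a four-parameter logistic.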

[1] = Table 2, human M1, read-out: Human M1 EC50

Row | Compound | EC50 [1] [nM] | Emax (Table 2, human M1) [%] | Emax [%] | EC50 (Table 1, mAChR M1 cell-based functional assay, PAM mode, species not given, read-out: EC50) [nM]
1 | Cc1csc2c(Cc3ccc(-n4cccn4)cc3)cc(C(=O)NCC3CCO3)nc12 (centres unmarked) [Compound 324, 3-methyl-N-(oxetan-2-ylmethyl)-7-[(4-pyrazol-1-ylphenyl)methyl]thieno[3,2-b]pyridine-5-carboxamide] | 1050 | 78.9 | – | –
2 | O=C(NC[C@H]1CCCO1)c1cc(Cc2ccc(-n3cccn3)cc2)c2sccc2n1 [Compound 287, 7-[(4-pyrazol-1-ylphenyl)methyl]-N-[[(2R)-tetrahydrofuran-2-yl]methyl]thieno[3,2-b]pyridine-5-carboxamide] | 49.4 | 64.9 | – | –
3 | Cc1nc(-c2ccc(Cc3cc(C(=O)NC4CC5(COC5)C4)nc4ccsc34)cc2)co1 [Compound 158, 7-[[4-(2-methyloxazol-4-yl)phenyl]methyl]-N-(2-oxaspiro[3.3]heptan-6-yl)thieno[3,2-b]pyridine-5-carboxamide] | 343 | 89.7 | – | –
4 | O=C(N[C@H]1CCCNC1)c1cc(Cc2ccc(-n3cccn3)cc2)c2sccc2n1 [Compound 290, N-[(3S)-3-piperidyl]-7-[(4-pyrazol-1-ylphenyl)methyl]thieno[3,2-b]pyridine-5-carboxamide] | 5340 | 65.3 | – | –
5 | CO[C@@H]1CCCC[C@H]1NC(=O)c1cc(Cc2ccc(-c3cn(C)nn3)cc2)c2sccc2n1 [Compound 156, N-[(1R,2R)-2-methoxycyclohexyl]-7-[[4-(1-methyltriazol-4-yl)phenyl]methyl]thieno[3,2-b]pyridine-5-carboxamide] | 260 | 89.2 | – | –
6 | Cn1ccc2nc(C(=O)NC3CCOCC3)cc(Cc3ccc(-n4cccn4)cc3)c21 [Compound 455, 1-methyl-7-[(4-pyrazol-1-ylphenyl)methyl]-N-tetrahydropyran-4-yl-pyrrolo[3,2-b]pyridine-5-carboxamide] | 136 | 75.1 | – | –
7 | Cc1csc2c(Cc3ccc(-c4ccn(C)n4)cc3)cc(C(=O)NCC3CCO3)nc12 (centres unmarked) [Compound 310, 3-methyl-7-[[4-(1-methylpyrazol-3-yl)phenyl]methyl]-N-(oxetan-2-ylmethyl)thieno[3,2-b]pyridine-5-carboxamide] | 471 | 78.1 | – | –
8 | O=C(c1cc(Cc2ccc(-n3cccn3)cc2)c2sccc2n1)N1[C@@H]2CC[C@H]1CC(O)C2 (stereo partly drawn) [Compound 80, [(1S,5R)-3-hydroxy-8-azabicyclop[3.2.1]octan-8-yl]-[7-[(4-pyrazol-1-ylphenyl)methyl]thieno[3,2-b]pyridin-5-yl]methanone] | > 10000 | – | 65.9 | –
9 | O=C(NC1CCCNC1=O)c1cc(Cc2ccc(C(F)(F)F)nc2)c2sccc2n1 (centres unmarked) [Compound 97, N-(2-oxo-3-piperidyl)-7-[[6-(trifluoromethyl)-3-pyridyl]methyl]thieno[3,2-b]pyridine-5-carboxamide] | > 10000 | 75.2 | – | –
10 | Cn1cc(-c2ccc(Cc3cc(C(=O)NCC4CCN4)nc4ccsc34)cn2)cn1 (centres unmarked) [Compound 360, N-(azetidin-2-ylmethyl)-7-[[6-(1-methylpyrazol-4-yl)-3-pyridyl]methyl]thieno[3,2-b]pyridine-5-carboxamide] | 38.5 | 88.1 | – | –
11 | O=C(NC1CCC(F)(F)CC1)c1cc(Cc2ccc(-c3nccs3)cc2)c2sccc2n1 [Compound 385, N-(4,4-difluorocyclohexyl)-7-[(4-thiazol-2-ylphenyl)methyl]thieno[3,2-b]pyridine-5-carboxamide] | > 10000 | 41.1 | – | –
12 | Cc1ccc(Oc2cc(C(=O)NC3CCCNC3=O)nc3ccsc23)cn1 (centres unmarked) [Compound 29, 7-[(6-methyl-3-pyridyl)oxy]-N-(2-oxo-3-pipendyl)thieno[3,2-b]pyridine-5-carboxamide] | – | – | – | > 10000
13 | O=C(NC1CN(CC(F)(F)F)C1)c1cc(Cc2ccc(-n3cccn3)cc2)c2sccc2n1 [Compound 432] | 3420 | 47.5 | – | –
14 | O=C(N[C@@H]1CCC[C@H]1O)c1cc(Cc2ccc(-n3cccn3)cc2)c2sccc2n1 [Compound 71, N-[(1R,2R)-2-hydroxycyclopentyl]-7-[(4-pyrazol-1-ylphenyl)methyl]thieno[3,2-b]pyridine-5-carboxamide] | 80.3 | 92.7 | – | –
15 | Cn1ccc(-c2ccc(Cc3cc(C(=O)N[C@H]4CC[C@@H]4O)nc4ccn(C)c34)cn2)n1 [Compound 513, N-[(1S,2S)-2-hydroxycyclobutyl]-1-methyl-7-[[6-(1-methylpyrazol-3-yl)-3-pyridyl]methyl]pyrrolo[3,2-b]pyridine-5-carboxamide] | 712 | 77.8 | – | –
16 | Cn1ccc(-c2ccc(Cc3cc(C(=O)NC4CCOC(C)(C)C4)nc4ccsc34)cn2)n1 (centres unmarked) [Compound 378, N-(2,2-dimethyltetrahydropyran-4-yl)-7-[[6-(1-methylpyrazol-3-yl)-3-pyridyl]methyl]thieno[3,2-b]pyridine-5-carboxamide] | 167 | 58.9 | – | –
17 | Cc1nc(-c2ccc(Cc3cc(C(=O)NC4CCOCC4)nc4ccsc34)cc2)co1 [Compound 230, 7-[[4-(2-methyloxazol-4-yl)phenyl]methyl]-N-tetrahydropyran-4-yl-thieno[3,2-b]pyridine-5-carboxamide] | 175 | 77.7 | – | –
18 | O=C(NC1COC1)c1cc(Cc2ccc(-c3nccs3)cc2)c2sccc2n1 [Compound 365, N-(oxetan-3-yl)-7-[(4-thiazol-2-ylphenyl)methyl]thieno[3,2-b]pyridine-5-carboxamide] | 1350 | 57.9 | – | –
19 | CC1(C)CC(NC(=O)c2cc(Cc3ccc(-c4cncs4)cc3)c3sccc3n2)CCO1 (centres unmarked) [Compound 388, N-(2,2-dimethyltetrahydropyran-4-yl)-7-[(4-thiazol-5-ylphenyl)methyl]thieno[3,2-b]pyridine-5-carboxamide] | 846 | 67.8 | – | –
20 | O=C(NC1CC(F)C1)c1cc(Cc2ccc(-c3cscn3)cc2)c2sccc2n1 (centres unmarked) [Compound 205, N-(3-fluorocyclobutyl)-7-[(4-thiazol-4-ylphenyl)methyl]thieno[3,2-b]pyridine-5-carboxamide] | 1720 | 78 | – | –
21 | Cn1ncc2nc(C(=O)N[C@H]3CCCC[C@@H]3O)cc(Cc3ccc(-n4cccn4)cc3)c21 [Compound 498, N-[(1S,2S)-2-hydroxycyclohexyl]-1-methyl-7-[(4-pyrazol-1-ylphenyl)methyl]pyrazolo-[4,3-b]pyridine-5-carboxamide] | 428 | 67.3 | – | –
22 | Cn1ccc2nc(C(=O)N[C@H]3CCCC[C@@H]3O)cc(Cc3ccc(-c4nccs4)cc3)c21 [Compound 479, N-[(1S,2S)-2-hydroxycyclohexyl]-1-methyl-7-[(4-thiazol-2-ylphenyl)methyl]pyrrolo[3,2-b]pyridine-5-carboxamide] | 41 | 52.5 | – | –
23 | Cc1ncc(Cc2cc(C(=O)N[C@H]3CC[C@@H]3O)nc3ccsc23)s1 [Compound 132, N-[(1S,2S)-2-hydroxycyclobutyl]-7-[(2-methylthiazol-5-yl)methyl]thieno[3,2-b]pyridine-5-carboxamide] | > 10000 | 54.9 | – | –
24 | Cn1cc(-c2ccc(Cc3cc(C(=O)NC4CCOC(C)(C)C4)nc4ccsc34)cn2)cn1 (centres unmarked) [Compound 336, N-(2,2-dimethyltetrahydropyran-4-yl)-7-[[6-(1-methylpyrazol-4-yl)-3-pyridyl]methyl]thieno[3,2-b]pyridine-5-carboxamide] | 64.3 | 58.4 | – | –
25 | Cc1ccc(Cc2cc(C(=O)N[C@@H]3CCC[C@H]3O)nc3c(C)csc23)cn1 [Compound 100] | 654 | 87.5 | – | –
26 | Cn1cc(-c2ccc(Cc3cc(C(=O)NC4CC5(COC5)C4)nc4ccsc34)cn2)cn1 [Compound 327, 7-[[6-(1-methylpyrazol-4-yl)-3-pyridyl]methyl]-N-(2-oxaspiro[3.3]heptan-6-yl)thieno[3,2-b]pyridine-5-carboxamide] | 166 | 79.2 | – | –
27 | Cc1ccc(Cc2cc(C(=O)NC3COC3)nc3ccsc23)cn1 [Compound 258, 7-[(6-methyl-3-pyridyl)methyl]-N-(oxetan-3-yl)thieno[3,2-b]pyridine-5-carboxamide] | > 10000 | 27.5 | – | –
28 | Cn1cc(-c2ccc(Cc3cc(C(=O)N[C@@H]4CCCCC[C@H]4O)nc4ccsc34)cc2)nn1 [Compound 157, N-[(1R,2R)-2-hydroxycycloheptyl]-7-[[4-(1-methyltriazol-4-yl)phenyl]methyl]thieno[3,2-b]pyridine-5-carboxamide] | 24.2 | 70 | – | –
29 | Cn1ccc2nc(C(=O)NC3CC(F)(F)C3)cc(Cc3ccc(-c4nccs4)cc3)c21 [Compound 487, N-(3,3-difluorocyclobutyl)-1-methyl-7-[(4-thiazol-2-ylphenyl)methyl]pyrrolo[3,2-b]pyridine-5-carboxamide] | 819 | 25.5 | – | –
30 | Cc1nc(-c2ccc(Cc3cc(C(=O)N[C@H]4CCCOC4)nc4ccsc34)cc2)cs1 [Compound 189, 7-[[4-(2-methylthiazol-4-yl)phenyl]methyl]-N-[(3S)-tetrahydropyran-3-yl]thieno[3,2-b]pyridine-5-carboxamide] | 6270 | 72 | – | –
